Laboratory results as given in patent publication US5698547A, “Cephalosporin antibiotics” (Microcide Pharmaceuticals, Inc., priority 1995, dated 1997).
Values after ≈ are worked out from the molar mass of the structure shown. Where a name gives a salt, the structure may show the parent alone.

What follows are molecules tested on S. aureus Col (Meth^R) (lac^-) (assay: MIC by agar dilution, S. aureus Col (Meth^R) (lac^-)). Conditions: Staphylococcus aureus; agar dilution; S. aureus Col (Meth^R) (lac^-); read-out: MIC.
Format: cell-based
How it was run: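 Log-phase isolates were spot-inoculated at about 10^4 cfu onto Mueller-Hinton agar carrying duplicate two-fold compound levels, 128 μg/mL to ≤0.25 μg/mL, following NCCLS (1991). Plates were read after 16-20 h at 35°-36° C. The lowest growth-inhibiting concentration gave the MIC (μg/ml).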
Work on Nc1nc(/C(=N/OCCF)C(=O)N[C@@H]2C(=O)N3C(C(=O)O)=C(Sc4ccnn4-c4ccccc4)CS[C@H]23)cs1 [Cmpd 90, (7R)-7-[(Z)-2-(aminothiazol-4-yl)-2-(2-fluoroethyloxyimino)acetamido]-3-(1-N-phenylpyrazol-5-ylthio)-3-cephem-4-carboxylic acid] yielded an MIC of 8 µg/mL (≈ 13.6 µM).
In the case of O=C(Cc1ccccc1)N[C@@H]1C(=O)N2C(C(=O)O)=C(Sc3cnnn3-c3ccccc3)CS[C@H]12 [Cmpd 91, (7R)-7-[(Phenylacetyl)amino]-3-(1-N-phenyl-1,2,3-triazol-5-ylthio)-3-cephem-4-carboxylic acid], the MIC is reported as 4 µg/mL (≈ 8.1 µM).
Molecule Nc1nc(-c2ccccc2)c(SC2=C(C(=O)O)N3C(=O)[C@@H](NC(=O)Cc4ccccc4)[C@H]3SC2)s1 [Cmpd 92, (7R)-7-[(Phenylacetyl)amino]-3-(2-amino-4-phenylthiazol-5-ylthio)-3-cephem-4-carboxylic acid] has an MIC of 2 µg/mL (≈ 3.81 µM).
O=C(Cc1ccccc1)N[C@@H]1C(=O)N2C(C(=O)O)=C(Sc3snnc3-c3ccccc3)CS[C@H]12 [Cmpd 93, (7R)-7-[(Phenylacetyl)amino]-3-(4-phenyl-1,2,3-thiadiazol-5-ylthio)-3-cephem-4-carboxylic acid] gave an MIC of 2 µg/mL (≈ 3.92 µM).
Work on O=C(Cc1ccccc1)N[C@@H]1C(=O)N2C(C(=O)O)=C(Sc3nnnn3-c3ccccc3)CS[C@H]12 [Cmpd 94, (7R)-7-[(Phenylacetyl)amino]-3-(1-N-phenyltetrazol-5-ylthio)-3-cephem-4-carboxylic acid] yielded an MIC of 4 µg/mL (≈ 8.09 µM).
For O=C(Cc1ccccc1)N[C@@H]1C(=O)N2C(C(=O)O)=C(Sc3ccccc3-c3cnco3)CS[C@H]12 [Cmpd 95, (7R)-7-[(Phenylacetyl)amino]-3-(2-oxazol-5-ylphenylthio)-3-cephem-4-carboxylic acid], the MIC was 4 µg/mL (≈ 8.1 µM).
With NCc1ccccc1CC(=O)N[C@@H]1C(=O)N2C(C(=O)O)=C(Sc3ccnn3-c3ccccc3)CS[C@H]12 [Cmpd 96, (7R)-7-[((2-aminomethylphenyl)acetyl)amino]-3-(1-N-phenylpyrazol-5-ylthio)-3-cephem-4-carboxylic acid] the MIC was 8 µg/mL (≈ 15.3 µM).
Molecule Nc1nc(/C(=N/OCCF)C(=O)N[C@@H]2C(=O)N3C(C(=O)O)=C(Sc4ccnn4-c4ccccc4)CS[C@H]23)c(Cl)s1 [Cmpd 98, (7R)-7-[(Z)-2-(2-amino-5-chlorothiazol-4-yl)-2-(2-fluoroethyloxyimino)acetamido]-3-(1-N-phenylpyrazol-5-ylthio)-3-cephem-4-carboxylic acid] has an MIC of 2 µg/mL (≈ 3.2 µM).
N=C(N)SCc1ccccc1SC1=C(C(=O)O)N2C(=O)[C@@H](NC(=O)Cc3ccc(O)cc3)[C@H]2SC1 [Cmpd 99, (7R)-7-[((4-Hydroxyphenyl)acetyl)amino]-3-(2-isothiouroniummethylphenylthio)-3-cephem-4-carboxylic acid, inner salt] was tested, and the MIC was 4 µg/mL.
In the case of N=C(N)SCCc1ccccc1SC1=C(C(=O)O)N2C(=O)[C@@H](NC(=O)Cc3ccccc3)[C@H]2SC1 [Cmpd 100, (7R)-7-[(Phenylacetyl)amino]-3-(2-(2-isothiouronium)ethylphenylthio)-3-cephem-4-carboxylate, inner salt], the MIC is reported as 4 µg/mL.
O=C(Cc1ccccc1)N[C@@H]1C(=O)N2C(C(=O)O)=C(Sc3ccnn3-c3ccccn3)CS[C@H]12 [Cmpd 105, (7R)-7-[(Phenylacetyl)amino]-3-(1-N-(pyridin-2-yl)pyrazol-5-ylthio)-3-cephem-4-carboxylic acid] was tested, and the MIC was 4 µg/mL (≈ 8.1 µM).
Work on CCCCCC(=O)N[C@@H]1C(=O)N2C(C(=O)O)=C(Sc3ccnn3-c3ccccc3)CS[C@H]12 [Cmpd 109, (7R)-7-[(hexanoyl)amino]-3-(1-N-phenylpyrazol-5-ylthio)-3-cephem-4-carboxylic acid] yielded an MIC of 4 µg/mL (≈ 8.46 µM).
In the case of O=C(Cc1ccco1)N[C@@H]1C(=O)N2C(C(=O)O)=C(Sc3ccnn3-c3ccccc3)CS[C@H]12 [Cmpd 111, (7R)-7-[(2-furylacetyl)amino]-3-(1-N-phenylpyrazol-5-ylthio)-3-cephem-4-carboxylic acid], the MIC is reported as 8 µg/mL (≈ 16.6 µM).
O=C(Cc1ccccc1)N[C@@H]1C(=O)N2C(C(=O)O)=C(Sc3ccnn3-c3cccc([N+](=O)[O-])c3)CS[C@H]12 [Cmpd 113, (7R)-7-[(Phenylacetyl)amino]-3-(1-N-(3-nitrophenyl)pyrazol-5-ylthio)-3-cephem-4-carboxylic acid] gave an MIC of 4 µg/mL (≈ 7.44 µM).
Work on COc1ccc(-n2nccc2SC2=C(C(=O)O)N3C(=O)[C@@H](NC(=O)Cc4ccccc4)[C@H]3SC2)cc1 [Cmpd 114, (7R)-7-[(Phenylacetyl)amino]-3-(1-N-(4-methoxyphenyl)pyrazol-5-ylthio)-3-cephem-4-carboxylic acid] yielded an MIC of 4 µg/mL (≈ 7.65 µM).
Work on O=C(Cc1cccs1)N[C@@H]1C(=O)N2C(C(=O)O)=C(Sc3ccnn3-c3ccccc3)CS[C@H]12 [Cmpd 116, (7R)-7-[(2-thienylacetyl)amino]-3-(1-N-phenylpyrazol-5-ylthio)-3-cephem-4-carboxylic acid] yielded an MIC of 4 µg/mL (≈ 8.02 µM).
With COc1cccc(-n2nccc2SC2=C(C(=O)O)N3C(=O)[C@@H](NC(=O)Cc4ccccc4)[C@H]3SC2)c1 [Cmpd 117, (7R)-7-[(Phenylacetyl)amino]-3-(1-N-(3-methoxyphenyl)pyrazol-5-ylthio)-3-cephem-4-carboxylic acid] the MIC was 8 µg/mL (≈ 15.3 µM).
Molecule Nc1nnc(SCC(=O)N[C@@H]2C(=O)N3C(C(=O)O)=C(Sc4ccnn4-c4ccccc4)CS[C@H]23)s1 [Cmpd 120] has an MIC of 8 µg/mL (≈ 14.6 µM).
For O=C(O)C1=C(Sc2ccnn2-c2ccccc2)CS[C@@H]2[C@H](NC(=O)C(=NO)c3ccco3)C(=O)N12 [Cmpd 121, (7R)-7-[2-(2-furyl)-2-(hydroxyimino)acetamido]-3-(1-N-phenylpyrazol-5-ylthio)-3-cephem-4-carboxylic acid], the MIC was 4 µg/mL (≈ 7.82 µM).
For O=C(Cc1ccccc1)N[C@@H]1C(=O)N2C(C(=O)O)=C(Sc3ccnn3-c3ccc(F)cc3)CS[C@H]12 [Cmpd 123, (7R)-7-[(Phenylacetyl)amino]-3-(1-N-(4-fluorophenyl)pyrazol-5-ylthio)-3-cephem-4-carboxylic acid], the MIC was 4 µg/mL (≈ 7.83 µM).
With N=C(N)SCc1ccccc1SC1=C(C(=O)O)N2C(=O)[C@@H](NC(=O)Cc3ccc(CN)cc3)[C@H]2SC1 [Cmpd 124, (7R)-7-[((4-aminomethylphenyl)acetyl)amino]-3-(2-isothiouroniummethylphenylthio)-3-cephem-4-carboxylate, trifluoroacetic acid salt] the MIC was 4 µg/mL.
Molecule CSCC(=O)N[C@@H]1C(=O)N2C(C(=O)O)=C(Sc3ccccc3CSC(=N)NC(=N)N)CS[C@H]12 [Cmpd 126, (7R)-7-[(methylthioacetyl)amino]-3-(2-(N-amidino)isothiouroniummethylphenylthio)-3-cephem-4-carboxylate, inner salt] has an MIC of 8 µg/mL.
With N=C(N)NCc1ccccc1SC1=C(C(=O)O)N2C(=O)[C@@H](NC(=O)Cc3ccccc3)[C@H]2SC1 [Cmpd 128, (7R)-7-[(Phenylacetyl)amino]-3-(2-guanidiniummethylphenylthio)-3-cephem-4-carboxylate, inner salt] the MIC was 8 µg/mL.
O=C(Cc1ccccc1)N[C@@H]1C(=O)N2C(C(=O)O)=C(Sc3ccccc3-n3cccn3)CS[C@H]12 [Cmpd 132, (7R)-7-[(Phenylacetyl)amino]-3-(2-(pyrazol-1-yl)phenylthio)-3-cephem-4-carboxylic acid] was tested, and the MIC was 8 µg/mL (≈ 16.2 µM).
CSCC(=O)N[C@@H]1C(=O)N2C(C(=O)O)=C(Sc3ccccc3CSC(=N)NN)CS[C@H]12 [Cmpd 133, (7R)-7-[(methylthioacetyl)amino]-3-(2-(N-amino)isothiouroniummethylphenylthio)-3-cephem-4-carboxylate, inner salt] showed an MIC of 2 to 4 µg/mL.
N=C(N)SCc1ccccc1SC1=C(C(=O)O)N2C(=O)[C@@H](NC(=O)CSCCCI)[C@H]2SC1 [Cmpd 134, (7R)-7-[(3-iodoprop-1-ylthioacetyl)amino]-3-(2-isothiouroniummethylphenylthio)-3-cephem-4-carboxylate, inner salt] showed an MIC of 2 µg/mL.
In the case of CSCC(=O)N[C@@H]1C(=O)N2C(C(=O)O)=C(Sc3ccccc3CNC(=N)N)CS[C@H]12 [Cmpd 135, (7R)-7-[(Methylthioacetyl)amino]-3-(2-guanidiniummethylphenylthio)-3-cephem-4-carboxylate, inner salt], the MIC is reported as 8 µg/mL.
Work on N=C(N)SCc1ccccc1SC1=C(C(=O)O)N2C(=O)[C@@H](NC(=O)/C(=N\O)c3ccccc3)[C@H]2SC1 [Cmpd 136, (7R)-7-[(Z)-2-(Phenyl)-2-(hydroxyimino)acetamido]-3-(2-isothiouroniummethylphenylthio)-3-cephem-4-carboxylate, inner salt] yielded an MIC of 2 µg/mL.
